Patent US12295919B2, “Methods of treatment and prevention using 4-deoxy-L-erythro-5-hexoseulose uronic acid” (MIE UNIVERSITY, priority 2022, dated 2025)

How the values were obtained:
Caco-2 cell monolayer = assay: Membrane permeability using Caco-2 cell monolayer; format: in vitro ADME, human
Description: When Caco-2 cells (human colon cancer-derived cell line) are cultured in a monolayer on a porous membrane filter, they differentiate into intestinal epithelium-like cells. Owing to the differentiation, they express brush borders and tight junctions similar to columnar epithelial cells of the small intestine, as well as metabolic enzymes and transporters present in the human small intestine. Therefore, the Caco-2 cell monolayer is widely used as a model to predict absorption from the intestinal tract.
Using the Caco-2 cell monolayer, the membrane permeability of DEH was confirmed.
Next, using the model apparatuses shown in FIGS. 2A-2B, the electrical resistance value (transepithelial electrical resistance (TEER) value) using an electrical resistance system (voltohmmeter) sold under the trademark MILLICELL™ ESR-2 (FIG. 2A) and permeability using Lucifer Yellow (FIG. 2B) were measured to confirm that a single layer film was formed. The single layer films, in which the TEER value was more than 300 Ω·cm2 and the permeability of Lucifer yellow was 0.3% to 2%, were used in the test.
Permeability (absorption) of substances, which were added to the apical (AP: apical, luminal) side, to the basolateral (BL) side, or permeability (excretion) of substances, which were added to the BL side, to the AP side was evaluated.
An ER value of less than 2 means absorption from the intestinal tract, and an ER value of 2 or more means excretion from the intestinal tract.

[1] = tested on: human iPS cell-derived intestinal epithelial cells; assay: Membrane permeability using human iPS cell-derived intestinal epithelial monolayer; format: in vitro ADME
Description: The permeability of DEH through membrane was confirmed using human iPS cells. […] Therefore, results closer to the human body can be obtained using iPS cell-derived intestinal epithelial cells as compared to those using the Caco-2 cell model test.
Using a CO2 incubator (37° C., 5% CO2), human iPS cell-derived intestinal epithelial cells were cultured for 13 to 20 days to prepare a monolayer.
The membrane permeability of the human iPS cell-derived intestinal epithelial monolayer membrane was evaluated by the method described above in <Test 1> using an electrical resistance system (voltohmmeter) sold under the trademark MILLICELL™ ESR-2. Monolayer films, in which the TEER value was more […], were used in the test.
Permeability (absorption) of substances, which were added to the AP side, to the BL side, or permeability (excretion) of substances, which were added to the BL side, to the AP side was evaluated. The above-mentioned SIM measurement of LC/MS was used in the detection and quantification of DEH.

C. elegans strain HA759 = assay: Inhibitory effect on neuronal death in PolyQ disease model; format: in vivo; conditions: 120 hours after start of culturing
Excerpt: The effect of DEH on neuronal death of the C. elegans strain HA759, which is a PolyQ disease model, was also investigated. HA759 strain (rtIs11 [osm-10p:: GFP+osm−10p: HtnQ150+dpy−20 (+)]) is a C. elegans strain which expresses Htn-Q150 (human huntingtin) and the fluorescent protein GFP downstream of the osm-10 gene when it receives a signal from ASH neurons. In accordance with the duration of the culture time, HA759 causes death of ASH neurons due to progressive neurodegeneration owing to accumulation of PolyQ.
Age-synchronized HA759 strain was cultured using mNGM medium. Control (DEH−), 25 mM DEH and 50 mM DEH were used as evaluation groups (samples). E. coli OP50-1 was used as nematode food.
Ten nematodes each were observed under a microscope immediately after the start of culture of the HA759 strain and after 24, 48, 72, and 120 hours to confirm whether nerve cells were alive or dead (n=30).
Each data is shown as mean±standard error. […] Thus, DEH inhibited, in a dose-dependent manner, PolyQ-induced neuronal death in the HA759 strain. Because DEH suppresses (reduces) PolyQ aggregation and neuronal cell death, DEH can treat and/or prevent symptoms of PolyQ disease, such as involuntary movement and dementia.

[2] = tested on: blood-brain barrier in vitro reconstitution system model (MBT-24H); assay: BBB permeability using cynomolgus monkey-type BBB kit (MBT-24H); format: in vitro ADME
Description: The permeability of DEH was evaluated using a commercially available BBB kit (blood-brain barrier in vitro reconstitution system model (MBT-24H: PharmaCo-Cell Company, Ltd.)). The kit uses cynomolgus monkey-derived cells as endothelial cells. The permeability of DEH was evaluated using this model.
The reconstituted cynomolgus monkey BBB model has a structure closer to that of human BBB as compared to that of the kit in <Test 2>, so it was considered to be a better model for evaluating whether DEH permeates the human BBB.
After the test, the DEH concentration on the brain parenchyma side was obtained, and the DEH permeability was calculated.

PC-12 cells = assay: Neurite outgrowth activity using PC-12 cells; format: cell-based, rat
Description: Next, the characteristics of DEH were investigated using PC-12 cells. PC-12 cells are cells that were isolated from rat adrenal medullary pheochromocytoma and established as a strain. Nerve growth factor (NGF) is not needed for survival of PC-12 cells, but proliferation is arrested, nerve fibers elongate, and sympathetic ganglion neuron-like properties develop by using NGF. Owing to these properties, PC-12 cells have been used as a model for neural differentiation.
PC-12 cells were cultured and divided into 8 subgroups: no addition (Control), DEH addition (10, 50, 100 μM), NGF addition, NGF addition+DEH addition (10, 50, 100 μM), and elongation of neurite formation was observed. ImageJ software was used to measure neurite length. FIGS. 5A-5C show photographs of cells observed under a microscope; in FIG. 6 the neurite length (μm) of each subgroup is shown. Each data is shown as mean±standard error of triplicate tests. Statistical analysis was performed using the t-test, and a significance level of less than 5% (p<0.05) was considered significant.
NGF addition+DEH addition (50, 60, 70, 80, 90, 100 μM) was divided into 6 subgroups, and the elongation and number of neurites were observed and are shown in FIGS. 7 and 8. Each data is shown as mean±standard error of triplicate tests.

[3] = tested on: blood-brain barrier in vitro reconstitution system model (RBT-24H); assay: BBB permeability using rat-type BBB kit (RBT-24H); format: in vitro ADME, Wistar rat
Description: Next, DEH permeability was evaluated using a commercially available BBB kit (blood-brain barrier in vitro reconstitution system model (RBT-24H: PharmaCo-Cell Company Ltd.)). This kit uses endothelial cells, pericytes and astrocytes of Wistar rat origin. The above-mentioned SIM measurement of LC/MS was used in the detection and quantification of DEH. A 1000 μg/mL DEH solution was added to the blood vessel side, and after 30 minutes, culture medium on the brain parenchyma side was collected. Then, the DEH concentration in the collected culture medium was measured.
A summary of data, which examined permeability subgroups that migrate into the brain for various compounds, are shown in Table 3.

DAF-16 = assay: Expression and activation (nuclear localization) of DAF-16; format: in vivo, C. elegans; conditions: 72 hours at 20° C.; for nuclear localization rate of DAF-16: TJ356 strain (Control 2.2%); for intermediate localization rate of DAF-16: TJ356 strain (Control 24.4%)
Excerpt: The FOXO gene daf-16 is one of the components of the insulin/IGF-1 signaling pathway that controls many biological processes such as lifespan, metabolism, and stress response. When DAF-16 is localized in the nucleus, it activates the transcription of numerous genes involved in the regulation of stress tolerance promotion and pathogen protection. Therefore, the involvement of DEH in the activation of daf-16 was examined using the C. elegans TJ356 strain.
The TJ356 strain (zls356 [daf-16p::daf-16a/b::GFP+rol-6 (su1006)]) is a nematode, in which a fluorescent protein GFP has been inserted into the daf-16 promoter, and nuclear translocation by daf-16 gene activation can be observed by fluorescence of the GFP.
Age-synchronized TJ356 strain was cultured using mNGM medium at 20° C. for 72 hours. As evaluation groups (samples), positive control (group heat-treated at 37° C. for 30 minutes after 72-hour culture), control (DEH−), 25 mM DEH and 50 mM DEH were used. E. coli OP50-1 was used as nematode food.
After culturing the TJ356 strain, 15 nematodes in each group were observed under a microscope to confirm the presence or absence of nuclear localization of the DAF-16 protein (GFP fluorescence) (n=60).
Each data is shown as mean±standard error. […] Thus, DEH increased the nuclear localization ratio of DAF-16 as compared to the Control.

[4] = human iPS cell-derived intestinal epithelial monolayer, mean ± s.e.
[5] = cynomolgus monkey BBB kit, mean ± s.e.

With O=C[C@@H](O)[C@@H](O)CC(=O)C(=O)O [DEH, 4-deoxy-L-erythro-5-hexoseulose uronic acid] the Absorption category (Caco-2 cell monolayer; Caco-2 Papp compared with Table 2) was “moderate”, the “Papp AP to BL” value (Caco-2 cell monolayer; Caco-2 monolayer, absorption direction, mean ± s.e.) was 5.13 ± 0.22 ×10^−6 cm/s and the “Papp BL to AP” value (Caco-2 cell monolayer; Caco-2 monolayer, excretion direction, mean ± s.e.) was 2.78 ± 0.12 ×10^−6 cm/s. The “ER (B→A/A→B)” value (Caco-2 cell monolayer; Caco-2 monolayer, ER less than 2 means absorption from the intestinal tract) was 0.542, the “Efflux ratio (ER) (B-A/A-B)” value ([1]; human iPS cell-derived intestinal epithelial monolayer) was 0.907 and the “Papp AP to BL” value [1, 4] was 8.78 ± 1.49 ×10^−6 cm/s. For the same compound, the “Papp BL to AP” value [1, 4] was 7.97 ± 1.26 ×10^−6 cm/s, the Absorption category ([1]; iPS-derived monolayer Papp compared with Table 2) was “moderate” and the “neuronal death suppressed (decreased) as compared to the Control” value (C. elegans strain HA759; 25 mM DEH) was 20.3%. The “neuronal death suppressed (decreased) as compared to the Control” value (C. elegans strain HA759; 50 mM DEH) was 46.4%, the “Efflux ratio (ER) (B-A/A-B)” value ([2]; cynomolgus monkey BBB kit) was 0.766 and the “Papp Blood side (A) to Brain side (B)” value [2, 5] was 2.88 ± 0.24 ×10^−6 cm/s. The “Papp Brain side (B) to Blood side (A)” value [2, 5] was 2.20 ± 0.55 ×10^−6 cm/s, the Permeability category ([2]; monkey BBB kit, Papp compared with Table 3) was “low (2~10)” and the “neurite outgrowth, DEH alone” value (PC-12 cells; DEH 10, 50, 100 μM without NGF) was “did not induce neurite outgrowth”. The “optimum concentration (maximum neurite elongation and number)” value (PC-12 cells; NGF + DEH 50-100 μM) was 70 µM, the “promotion of the function of NGF (neurite length)” value (PC-12 cells; NGF addition + DEH addition, p<0.05 vs NGF) was “significantly (p<0.05) promote the function of NGF” and the “Papp (DEH permeability, blood vessel side to brain parenchyma side)” value ([3]; 1000 μg/mL DEH, 30 minutes) was 14.62±6.86 ×10^−6 cm/s. The Permeability category ([3]; Papp compared with Table 3) was “good (10~20)”, the “nuclear localization rate of DAF-16” value (DAF-16; 25 mM DEH) was 40.0% and the “intermediate localization rate of DAF-16” value (DAF-16; 25 mM DEH) was 35.6%. For the same compound, the “nuclear localization rate of DAF-16” value (DAF-16; 50 mM DEH) was 51.1% and the “intermediate localization rate of DAF-16” value (DAF-16; 50 mM DEH) was 31.1%.
